34 compounds from patent US20220226299A1 (NIPPON CHEMIPHAR CO., LTD., priority 2019, published 2022) can be followed below.

The target of this assay is T1, human Cav3.2 channels (Homo sapiens, UniProt O95180).
T1 construct: human Cav3.2 channel ORF (Open Reading Frame) gene; expressed in transfected cells; host or cells: HEK293 cells (ATCC No. CRL-1573), pcDNA3.1(+) plasmid
As to the kind of experiment: T-type calcium blocking action: intracellular calcium (Fluo-4 AM fluorescence) in HEK293 cells steadily expressing human Cav3.2 channels. Format: cell-based. The settings on record: HEK293 cells expressing human Cav3.2; KCl-stimulated calcium influx, Fluo-4 fluorescence; Tables 1 to 3. An excerpt: T-Type Calcium Blocking Action
(1) Construction of Cells Steadily Expressing Human Cav3.2 Channels
A sequence obtained by adding HindIII site and a kozak sequence (GCCACC) to the 5′-side of human Cav3.2 channel ORF (Open Reading Frame) gene and adding a KpnI site to the 3′-side of the gene, was incorporated into pcDNA3.1(+) (Thermo Fisher Scientific, #V790-20), and the plasmid was introduced into HEK293 cells (ATCC No. CRL-1573) according to the protocol of FuGENE (registered trademark) HD Transfection Reagent (Promega, #E2311).
(2) Method for Measuring Intracellular Calcium Concentration
The cells steadily expressing human Cav3.2 channels produced by testing method (1) were seeded on a 96-well plate (Dulbecco's modified Eagle medium (DMEM) medium containing 10% fetal bovine serum (FBS) was used as a medium). The cells were seeded and cultured for 48 hours under conditions of 37° C. and 5% CO2. Thereafter, the cells were washed with buffer A in order to remove the medium. Each well was treated with 80 μL of a fluorescent dye solution produced by mixing 22 μg of a fluorescent calcium indicator, Fluo-4 AM (Dojindo Laboratories, #F311), 20 μL of DMSO, 1 μL of 10% Pluronic F-127 (Thermo Fisher Scientific, #P6866), and 4 mL of buffer A. The cells were allowed to stand for 45 minutes at room temperature under light-shielded conditions, and then washed with buffer B in order to completely replace the solution. 70 μL of DMSO having the same concentration as that of a test compound as a negative control and 70 μL of a mixture containing 1 μM of a known blocker RQ-00311651 and the test compound as a positive control were each added to each well in a form of being contained in the buffer B. The test compound was dissolved in 100% DMSO and added at a final concentration of 0.1%. Then, the cells were further allowed to stand at room temperature under light-shielded conditions for 15 minutes and placed in a microplate reader EnVision (PerkinElmer). Background fluorescence was measured in each well, and then a 5 μg/mL grammicidin solution was added to buffer B at 10 μL/well. After 90 seconds, baseline fluorescence was measured. Thereafter, 83.8 mM KCl was added to buffer B at 20 μL/well, and an increase in fluorescence caused by calcium influx generated by the stimulus was measured for 10 seconds. A blocking percentage was calculated from a maximum fluorescence increase value from a baseline, a logarithmic value of a compound concentration and blockery activity were plotted, and thereby an IC50 value was calculated. In the measurement, fluorescence at 510 nm that was emitted when the cells were irradiated with excitation light at 485 nm was observed.
Buffer A: 140 mM NaCl, 5 mM KCl, 1 mM MgCl2, 0.5 mM CaCl2, 10 mM Glucose, 10 mM HEPES, pH 7.3
Buffer B: 137.9 mM Choline-Cl, 4.1 mM KCl, 1 mM MgCl2, 0.5 mM CaCl2, 10 mM Glucose, 10 mM HEPES, pH 7.3

T1 sequence (O95180 whole entry): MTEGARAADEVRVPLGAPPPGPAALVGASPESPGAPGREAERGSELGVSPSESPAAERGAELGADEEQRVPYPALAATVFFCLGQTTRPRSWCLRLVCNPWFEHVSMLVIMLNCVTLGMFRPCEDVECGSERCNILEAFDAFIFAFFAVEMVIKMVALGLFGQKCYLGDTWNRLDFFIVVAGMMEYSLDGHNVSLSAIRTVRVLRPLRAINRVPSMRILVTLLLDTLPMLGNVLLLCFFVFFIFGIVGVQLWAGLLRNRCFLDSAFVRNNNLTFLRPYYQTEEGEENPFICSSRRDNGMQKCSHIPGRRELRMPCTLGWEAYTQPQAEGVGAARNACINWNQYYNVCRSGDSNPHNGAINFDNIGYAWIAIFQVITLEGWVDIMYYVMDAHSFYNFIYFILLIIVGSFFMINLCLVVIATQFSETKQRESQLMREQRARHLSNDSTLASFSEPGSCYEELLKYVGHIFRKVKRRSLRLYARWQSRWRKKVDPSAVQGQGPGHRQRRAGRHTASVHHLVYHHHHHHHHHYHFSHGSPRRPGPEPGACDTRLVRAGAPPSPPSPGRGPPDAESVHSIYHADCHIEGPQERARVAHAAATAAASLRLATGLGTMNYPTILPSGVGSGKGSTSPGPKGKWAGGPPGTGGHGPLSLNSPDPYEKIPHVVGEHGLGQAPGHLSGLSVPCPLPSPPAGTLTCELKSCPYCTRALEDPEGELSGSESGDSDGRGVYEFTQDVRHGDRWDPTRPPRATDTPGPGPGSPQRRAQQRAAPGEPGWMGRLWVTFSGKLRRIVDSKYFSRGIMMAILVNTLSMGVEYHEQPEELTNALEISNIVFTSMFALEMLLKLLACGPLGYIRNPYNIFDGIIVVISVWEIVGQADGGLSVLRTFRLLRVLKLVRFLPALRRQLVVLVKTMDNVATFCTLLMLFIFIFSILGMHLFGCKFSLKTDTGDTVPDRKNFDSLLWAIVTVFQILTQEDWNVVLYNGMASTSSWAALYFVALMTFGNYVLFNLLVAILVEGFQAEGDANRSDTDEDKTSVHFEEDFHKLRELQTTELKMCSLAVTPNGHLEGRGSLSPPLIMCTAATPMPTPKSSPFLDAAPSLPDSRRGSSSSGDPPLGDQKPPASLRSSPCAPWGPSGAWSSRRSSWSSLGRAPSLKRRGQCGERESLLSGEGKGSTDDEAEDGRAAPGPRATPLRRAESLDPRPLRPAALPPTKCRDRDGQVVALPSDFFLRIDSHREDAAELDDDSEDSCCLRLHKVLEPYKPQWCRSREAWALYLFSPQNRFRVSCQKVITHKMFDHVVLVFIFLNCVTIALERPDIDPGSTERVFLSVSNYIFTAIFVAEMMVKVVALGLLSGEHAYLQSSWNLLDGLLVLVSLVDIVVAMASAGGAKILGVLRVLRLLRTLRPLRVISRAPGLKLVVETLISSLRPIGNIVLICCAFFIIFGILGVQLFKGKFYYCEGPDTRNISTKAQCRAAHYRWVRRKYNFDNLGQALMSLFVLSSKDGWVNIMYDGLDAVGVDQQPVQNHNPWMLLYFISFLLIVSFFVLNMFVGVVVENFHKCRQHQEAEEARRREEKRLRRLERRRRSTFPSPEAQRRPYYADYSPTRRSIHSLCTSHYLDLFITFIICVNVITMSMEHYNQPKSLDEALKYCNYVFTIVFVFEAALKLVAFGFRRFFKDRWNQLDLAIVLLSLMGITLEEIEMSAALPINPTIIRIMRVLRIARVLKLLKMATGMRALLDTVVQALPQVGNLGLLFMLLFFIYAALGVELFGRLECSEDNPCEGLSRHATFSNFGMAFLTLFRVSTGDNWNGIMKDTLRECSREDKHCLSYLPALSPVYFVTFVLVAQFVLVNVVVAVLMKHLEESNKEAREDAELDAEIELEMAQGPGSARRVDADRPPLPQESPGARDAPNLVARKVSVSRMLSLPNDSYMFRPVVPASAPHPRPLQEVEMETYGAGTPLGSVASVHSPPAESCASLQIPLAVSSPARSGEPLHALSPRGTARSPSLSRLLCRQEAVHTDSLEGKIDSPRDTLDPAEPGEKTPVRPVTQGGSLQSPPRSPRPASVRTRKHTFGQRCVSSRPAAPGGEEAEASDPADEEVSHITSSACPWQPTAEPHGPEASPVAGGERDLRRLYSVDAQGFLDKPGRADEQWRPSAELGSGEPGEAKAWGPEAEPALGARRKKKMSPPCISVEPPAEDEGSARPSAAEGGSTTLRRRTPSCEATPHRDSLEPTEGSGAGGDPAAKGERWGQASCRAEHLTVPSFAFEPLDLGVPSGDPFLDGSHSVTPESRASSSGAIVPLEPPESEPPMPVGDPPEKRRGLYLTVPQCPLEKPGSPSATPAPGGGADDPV

Usually IC50 stands for the concentration at which inhibition is half-maximal. In the case of `O=C(N[C@@H]1CCN(c2ccc(C(F)(F)F)cc2)C1)C1CC1c1nc2ccccc2[nH]1` (single isomer, unassigned) [Example 52], the IC50 is 110 nM. With `O=C(N[C@H]1CCN(c2ccc(C(F)(F)F)cc2)C1)C1CC1c1nc2ccccc2[nH]1` (single isomer, unassigned) [Example 53], the IC50 was 1000 nM. Take `O=C(N[C@@H]1CCCN(c2ccc(C(F)(F)F)nc2)C1)C1CC1c1nc2ccccc2[nH]1` (single isomer, unassigned) [Example 63A]: the IC50 came out at 190 nM. On to `O=C(N[C@@H]1CCCN(c2ccc(C(F)(F)F)nc2)C1)C1CC1c1nc2ccccc2[nH]1` (single isomer, unassigned) [Example 63B], for which the half-maximal inhibitory concentration (IC50) was greater than 10000 nM. In the case of `O=C(N[C@@H]1CCN(c2ccc(C(F)(F)F)nc2)C1)C1CC1c1c[nH]c2ccccc12` (single isomer, unassigned) [Example 66], the IC50 was 69 nM. As for `O=C(N[C@@H]1CCN(c2cncc(C(F)(F)F)c2)C1)C1CC1c1cc(Cl)cc(Cl)c1` (single isomer, unassigned) [Example 99A], the figure is 90 nM.

As for `O=C(N[C@@H]1CCN(c2cncc(C(F)(F)F)c2)C1)C1CC1c1cc(Cl)cc(Cl)c1` (single isomer, unassigned) [Example 99B], the IC50 was determined as 480 nM. Consider `O=C(N[C@@H]1CCN(c2cncc(C(F)(F)F)c2)C1)C1CC1c1ccc(Br)cc1` (single isomer, unassigned) [Example 100A], for which the IC50 worked out at 9.3 nM.

For the compound `O=C(N[C@@H]1CCN(c2cncc(C(F)(F)F)c2)C1)C1CC1c1ccc(Br)cc1` (single isomer, unassigned) [Example 100B], the IC50 was 460 nM. Regarding `O=C(N[C@@H]1CCN(c2cncc(C(F)(F)F)c2)C1)C1CC1c1ccc(C2CC2)cc1` (single isomer, unassigned) [Example 106A], the IC50 was 11 nM.

With `O=C(N[C@@H]1CCN(c2cncc(C(F)(F)F)c2)C1)C1CC1c1ccc(C2CC2)cc1` (single isomer, unassigned) [Example 106B], the IC50 came to 400 nM. As for `O=C(N[C@@H]1CCN(c2cncc(C(F)(F)F)c2)C1)C1CC1c1ccc(F)c(F)c1` (single isomer, unassigned) [Example 107A], the figure is 4.7 nM; as for `O=C(N[C@@H]1CCN(c2cncc(C(F)(F)F)c2)C1)C1CC1c1ccc(F)c(F)c1` (single isomer, unassigned) [Example 107B], 560 nM; as for `O=C(N[C@@H]1CCN(c2cncc(C(F)(F)F)c2)C1)C1CC1c1ccc(Cl)cc1` (single isomer, unassigned) [Example 108A], 5.7 nM. `O=C(N[C@@H]1CCN(c2cncc(C(F)(F)F)c2)C1)C1CC1c1ccc(Cl)cc1` (single isomer, unassigned) [Example 108B]: the IC50 amounted to 200 nM. Regarding `NC(C(=O)N[C@@H]1CCN(c2cncc(C(F)(F)F)c2)C1)c1ccc(C2CC2)cc1` (single isomer, unassigned) [Example 137A], the IC50 was 100 nM. As for `NC(C(=O)N[C@@H]1CCN(c2cncc(C(F)(F)F)c2)C1)c1ccc(C2CC2)cc1` (single isomer, unassigned) [Example 137B], the figure is 820 nM; as for `O=C(Cc1ccc(N2CC3CC2CO3)cc1)N[C@@H]1CCN(c2cncc(C(F)(F)F)c2)C1` (single isomer, unassigned) [Example 165], 30 nM; as for `O=C(Cc1ccc(N2CC3CC2CO3)cc1)N[C@@H]1CCN(c2ccc(C(F)(F)F)nc2)C1` (single isomer, unassigned) [Example 166], 220 nM. As to `O=C(Cc1ccc(C2CC2)cc1)N[C@@H]1CCN(c2cncc(C(F)(F)F)c2)C1` [Example 1, (R)-2-(4-cyclopropylphenyl)-N-(1-(5-(trifluoromethyl)pyridin-3-yl)pyrrolidin-3-yl)acetamide], the IC50 was found to be 13 nM. Under `O=C(Cc1ccc(C(F)(F)F)cn1)N[C@@H]1CCN(c2cncc(C(F)(F)F)c2)C1` [Example 2, (R)-2-(5-(trifluoromethyl)pyridin-2-yl)-N-(1-(5-(trifluoromethyl)pyridin-3-yl)pyrrolidin-3-yl)acetamide] stands 1300 nM; under `CC(C)c1ccc(CC(=O)N[C@@H]2CCN(c3cnc(C(F)(F)F)nc3)C2)cc1` [Example 3, (R)-2-(4-isopropylphenyl)-N-(1-(2-(trifluoromethyl)pyrimidin-5-yl)pyrrolidin-3-yl)acetamide], 850 nM. For the compound `CC(C)c1ccc(CC(=O)N[C@@H]2CCN(c3cncc(C(F)(F)F)c3)C2)cc1` [Example 4, (R)-2-(4-isopropylphenyl)-N-(1-(5-(trifluoromethyl)pyridin-3-yl)pyrrolidin-3-yl)acetamide], the IC50 is 14 nM. `O=C(Cc1ccc(C2CC2)cc1)N[C@H]1CN(c2cncc(C(F)(F)F)c2)C[C@@H]1O` [Example 5, 2-(4-cyclopropylphenyl)-N-((3S,4S)-4-hydroxy-1-(5-(trifluoromethyl)pyridin-3-yl)pyrrolidin-3-yl)acetamide]: the IC50 worked out at 290 nM. For the compound `O=C(Cc1ccc(C2CC2)cc1)N[C@H]1CN(c2cncc(C(F)(F)F)c2)CC12CC2` [Example 6, (R)-2-(4-cyclopropylphenyl)-N-(5-(5-(trifluoromethyl)pyridin-3-yl)-5-azaspiro[2.4]heptan-7-yl) acetamide], the IC50 was found to be 130 nM. Consider `O=C(Cc1ccc(C2CC2)cc1)N[C@H]1CN(c2ccc(C(F)(F)F)nc2)CC12CC2` [Example 7, (R)-2-(4-cyclopropylphenyl)-N-(5-(6-(trifluoromethyl)pyridin-3-yl)-5-azaspiro[2.4]heptan-7-yl) acetamide], for which the IC50 came to 97 nM.

As to `O=C(Cc1ccc(C2CC2)cc1)N[C@H]1CN(c2nc(C(F)(F)F)cs2)CC12CC2` [Example 8, (R)-2-(4-cyclopropylphenyl)-N-(5-(4-(trifluoromethyl)thiazol-2-yl)-5-azaspiro[2.4]heptan-7-yl) acetamide], the IC50 was 200 nM.

Take `C[C@H]1C[C@@H](NC(=O)Cc2ccc(C3CC3)cc2)CN1c1cncc(C(F)(F)F)c1` [Example 9, 2-(4-cyclopropylphenyl)-N-((3R,5S)-5-methyl-1-(5-(trifluoromethyl)pyridin-3-yl)pyrrolidin-3-yl)acetamide]: the IC50 worked out at 480 nM.

`O=C(Cc1ccc(C2CC2)cc1)N[C@]12CC1CN(c1cncc(C(F)(F)F)c1)C2` (stereo partly shown) [Example 10, 2-(4-cyclopropylphenyl)-N-(3-(5-(trifluoromethyl)pyridin-3-yl)-3-azabicyclo[3.1.0]hexan-1-yl) acetamide]: the IC50 came out at 410 nM. As for `O=C(Cc1ccc(C(F)(F)F)cc1)N[C@@H]1CCN(c2cncc(C(F)(F)F)n2)C1` [Example 11, (R)-2-(4-(trifluoromethyl)phenyl)-N-(1-(6-(trifluoromethyl)pyrazin-2-yl)pyrrolidin-3-yl)acetamide], the IC50 is 180 nM.

Turning to `N#Cc1ncc(N2CC[C@@H](NC(=O)Cc3ccc(C4CC4)cc3)C2)cc1C(F)(F)F` [Example 12, (R)—N-(1-(6-cyano-5-(trifluoromethyl)pyridin-3-yl)pyrrolidin-3-yl)-2-(4-cyclopropylphenyl)acetamide], the IC50 was 280 nM. With `COC(=O)C1(NC(=O)Cc2ccc(C3CC3)cc2)CCN(c2cncc(C(F)(F)F)c2)C1` (stereo not shown) [Example 13, Methyl 3-(2-(4-cyclopropylphenyl)acetamido)-1-(5-(trifluoromethyl)pyridin-3-yl)pyrrolidine-3-carboxylate], the IC50 turned out to be 18 nM. As for `O=C(Cc1ccc(C2CC2)cc1)NC1(C(=O)O)CCN(c2cncc(C(F)(F)F)c2)C1` (stereo not shown) [Example 14, 3-(2-(4-cyclopropylphenyl)acetamido)-1-(5-(trifluoromethyl)pyridin-3-yl)pyrrolidine-3-carboxylic acid], the figure is 5200 nM; as for `O=C(Cc1ccc2cn[nH]c2c1)N[C@@H]1CCN(c2cncc(C(F)(F)F)c2)C1` [Example 15, (R)-2-(1H-indazol-6-yl)-N-(1-(5-(trifluoromethyl)pyridin-3-yl)pyrrolidin-3-yl)acetamide], 370 nM.
